In data set [1] the test system is D2 family of dopamine receptors. As to conditions: cited from earlier work.
In data set [2] the test system is patients with amyotrophic lateral sclerosis (ALS). To be noted: 30 mg/day for up to 8 weeks. As for the experimental part:
Phase I clinical studies with R(+) pramipexole were conducted in patients with amyotrophic lateral sclerosis (ALS), a fatal adult neurodegenerative disease arising from the loss of motor nerve cells. […] These reports included such things as regaining the ability to speak coherently, the ability to climb stairs again, and improved motor skills in their extremities, i.e. hands and/or fingers.

The subject of data set [3] is oxidative stress produced by MPP+ (ETC complex I inhibitor). To be noted: both in vitro and in vivo; cited from earlier work.
Data set [4] concerns mitochondrial transition pore (MTP). To be noted: induced by MPP+ and other stimuli; cited from earlier work.
In data set [5] the test system is dopamine neurons (MPTP toxicity). To be noted: cellular and animal models of increased oxidative stress, including MPTP toxicity to dopamine neurons; cited from earlier work.

In the case of `CCCN[C@@H]1CCc2nc(N)sc2C1` [R(+) pramipexole, R-(+)-2-amino-4,5,6,7-tetrahydro-6-propylaminobenzathiazole], the “stability in aqueous solutions” value was “stable in aqueous solutions”. Also, the dopamine agonist activity entry in data set [1] (Schneider and Mierau, J. Med. Chem. 1987) was “very little”. For the same compound, the “patients reporting improvements in motor function” value in data set [2] is reported as “approximately half the patients”.
Turning to `CCCN[C@H]1CCc2nc(N)sc2C1` [S(−) PPX], the “effect on oxidative stress produced by MPP+” value in data set [3] is recorded as “reduces oxidative stress”. For the same compound, the “effect on opening of the mitochondrial transition pore (MTP)” value in data set [4] is “can block the opening”. For the same compound, the neuroprotection entry in data set [5] is on record as “neuroprotective”. In addition, in data set [1], the “agonism of the D2 family of dopamine receptors” value is on record as “potent agonist”.
